Test results as given in patent publication US4596808A, “Pharmacologically active 3-substituted beta-carbolines useful as tranquilizers” (Schering Aktiengesellschaft, priority 1980, dated 1986).
Where two headings read alike, the source gives them in different places.

Experiments:
male mice = test: Inhibition of aggression in isolated male mice; assay type: in vivo; conditions: Mus musculus, 0.5 h, half an hour
Experimental: The compounds of the invention have an antiaggressive effect on mice. Aggression inhibition was determined on male mice (NMR from Moellegard, Denmark) with weights of 20-22 g. The mice are kept isolated for three weeks in plastic cages and when two mice are subsequently put into the same cage, they will spontaneously and almost instantaneously start to fight.
J. Pharmacol., 1978, 47, 45-49. The compounds of this invention were administered subcutaneously and orally and the anti-aggressive effect half an hour later was determined. The ED50 values were determined from the test results. These test results are listed in Table 2 for compounds of this invention and also for several known tranquilizers.

benzodiazepine receptor [1] = test: Displacement of 3H-flunitrazepam from benzodiazepine receptors in vitro (IC50); assay type: binding; conditions: rat forebrain, 3H-flunitrazepam 1.0 nM, 0° C.
Source text: For example, it is known that certain locations in the central nervous system of vertebrates have a high specific affinity for bonding 1,4 and 1,5-benzodiazepines. (See, e.g., R. F. Squires & C. Braestrup, Nature [London] 266 [1977], 734, which is incorporated by reference herein). These locations are called benzodiazepine receptors.
This displacement activity of the compounds of this invention has been determined by measuring IC50 and ED50 values. The IC50 value is the concentration which causes a 50% displacement of the specific binding of ^3 H-flunitrazepam (1.0 nM, 0° C.) in samples with a total volume of 0.55 ml of a suspension of brain membrane, e.g., from rats.
The displacement test is carried out as follows:
0.5 ml of a suspension of untreated rat forebrain in 25 mM KH2 PO4, at a pH of 7.1 (5-10 mg of tissue per sample) were incubated with ^3 H-diazepam (specific activity 14.4 Ci/millimole, 1.9 nM) or ^3 H-flunitrazepam (specific activity 87 Ci/millimole, 1.0 nM) for 40-60 minutes at 0° C. After incubation, the suspension is filtered through a glass frit, the residue is washed twice with a cold buffer solution and the radioactivity is measured by scintillation counting.
The test is then repeated, except prior to addition of the radioactively marked benzodiazepine, a given amount or an excess amount of the compound whose displacement activity is to be ascertained, is added. The IC50 value can then be computed from the test results obtained.

benzodiazepine receptor [2] = test: In vivo inhibition of 3H-flunitrazepam binding to the benzodiazepine receptor in living brain (ED50); conditions: mice, subcutaneous, 3H-flunitrazepam i.v. 15 min later
[3] = tested on: pentazole-induced convulsions; test: Antagonism of pentazole-induced convulsions; assay type: in vivo; conditions: sc
Source text: Moreover, the antagonism of pentazole-induced convulsions was investigated.
The test has been performed according to known test models in pharmacology,e.g., described in R. A. Turner, Screening Methods in Pharmacology, Academic Press, N.Y. and London 1965, esp. p. 164 ff., or, Woodbury, P. M., Perry, I. K. and Schmidt, R. P. Antiepileptic Drugs, Raven Press, N.Y. 1972.

[4] = po, p.o., read-out: Inhibition of Aggression ED50, p.o.
[5] = sc, s.c., read-out: Inhibition of Aggression ED50, s.c.
[6] = clonic, read-out: Antagonism of pentazole-induced convulsions, ED50 s.c., Clonic convulsions
[7] = death, read-out: Antagonism of pentazole-induced convulsions, ED50 s.c., Death
[8] = tonic, read-out: Antagonism of pentazole-induced convulsions, ED50 s.c., Tonic convulsions

## CC(=NO)c1cc2c(cn1)[nH]c1ccccc12 [drawing 39]
Male mice; [4]
  ED50: 75 mg/kg

## CON=Cc1cc2c(cn1)[nH]c1ccccc12 [CHNOCH3, beta-carboline-3-carboxaldehyde-oxime-methylether]
Benzodiazepine receptor [1]
  In vitro IC50, inhibition of 3H flunitrazepam binding (Affinity for the benzodiazepine receptor): 0.0513 µg/mL
Benzodiazepine receptor [2]
  In vivo ED50, inhibition of 3H flunitrazepam binding (Affinity for the benzodiazepine receptor): 16 mg/kg
Male mice; [5]
  ED50: 15 mg/kg

## CCOC(=O)C=Cc1cc2c(cn1)[nH]c1ccccc12 [CHCHCOOC2 H5, ethyl-3-(3-beta-carbolinyl)-acrylate]
Benzodiazepine receptor [1]
  In vitro IC50, inhibition of 3H flunitrazepam binding (Affinity for the benzodiazepine receptor): 0.0589 µg/mL
Benzodiazepine receptor [2]
  In vivo ED50, inhibition of 3H flunitrazepam binding (Affinity for the benzodiazepine receptor): > 250 mg/kg
[3]; [6]
  ED50: > 100 mg/kg
[3]; [7]
  ED50: 35 mg/kg
[3]; [8]
  ED50: 100 mg/kg
Male mice; [5]
  ED50: 4 mg/kg

## CCOC(=O)Cc1cc2c(cn1)[nH]c1ccccc12 [CH2 COOC2 H5]
Benzodiazepine receptor [1]
  In vitro IC50, inhibition of 3H flunitrazepam binding (Affinity for the benzodiazepine receptor): 0.363 µg/mL
Benzodiazepine receptor [2]
  In vivo ED50, inhibition of 3H flunitrazepam binding (Affinity for the benzodiazepine receptor): > 250 mg/kg
Male mice; [5]
  ED50: 75 mg/kg

## CN(C)N=Cc1cc2c(cn1)[nH]c1ccccc12 [drawing 40]
[3]; [6]
  ED50: 20 mg/kg
[3]; [7]
  ED50: < 10 mg/kg
[3]; [8]
  ED50: < 10 mg/kg
Male mice; [4]
  ED50: ≤ 50 mg/kg
Male mice; [5]
  ED50: 7.5 mg/kg

## CC(=O)c1cc2c(cn1)[nH]c1ccccc12 [COCH3, 3-acetyl-beta-carboline]
Benzodiazepine receptor [1]
  In vitro IC50, inhibition of 3H flunitrazepam binding (Affinity for the benzodiazepine receptor): 0.0224 µg/mL
Benzodiazepine receptor [2]
  In vivo ED50, inhibition of 3H flunitrazepam binding (Affinity for the benzodiazepine receptor): 100 mg/kg
[3]; [6]
  ED50: > 100 mg/kg
[3]; [7]
  ED50: 75 mg/kg
[3]; [8]
  ED50: 100 mg/kg
Male mice; [5]
  ED50: 35 mg/kg

## O=Cc1cc2c(cn1)[nH]c1ccccc12 [CHO, beta-carboline-3-carboxaldehyde]
Benzodiazepine receptor [1]
  In vitro IC50, inhibition of 3H flunitrazepam binding (Affinity for the benzodiazepine receptor): 0.0302 µg/mL
Benzodiazepine receptor [2]
  In vivo ED50, inhibition of 3H flunitrazepam binding (Affinity for the benzodiazepine receptor): > 250 mg/kg
Male mice; [5]
  ED50: 8 mg/kg

## CN(C)N=Cc1cc2c(cn1)[nH]c1ccc(S(=O)(=O)N(C)C)cc12 [drawing 46]
[3]; [6]
  ED50: 20 mg/kg
[3]; [7]
  ED50: 15 mg/kg
[3]; [8]
  ED50: 15 mg/kg

## CN(C)S(=O)(=O)c1ccc2[nH]c3cnc(C=NN4CCCC4)cc3c2c1 [drawing 48]
[3]; [6]
  ED50: 50 mg/kg
[3]; [7]
  ED50: 20 mg/kg
[3]; [8]
  ED50: 20 mg/kg

## CC(=NN(C)C)c1cc2c(cn1)[nH]c1ccccc12 [drawing 42]
[3]; [6]
  ED50: > 100 mg/kg
[3]; [7]
  ED50: 75 mg/kg
[3]; [8]
  ED50: 75 mg/kg
